Each structure is given as a SMILES string. Where a SMILES comes first, the peptide text is derived from it. The star is where a group is joined. Cbz = O=C(OCc1ccccc1)*; Boc = CC(C)(C)OC(=O)*

From patent US11219670B2, “Targeting CAPN9/CAPNS2 activity as a therapeutic strategy for the treatment of myofibroblast differentiation and associated pathologies” (The Johns Hopkins University, priority 2014, dated 2022) come the findings set out here.

In assay [1] the test system is calpain activity (cleavage of Filamin A). Put plainly: TGFβ-induced calpain activity in NMuMG cells (cleavage of Filamin A, western blot). It counts as cell-based, Mouse. As for the experimental part: (§1) (FIG. 1B; Levels were normalized to the 72 h TGFβ1 only treated sample for each blot. Students t-test *p<0.05, **p<0.01, † p<0.005, †† p<0.001). […] (FIG. 1H; Levels were normalized to the 72 h TGFβ1 only treated sample for each blot. Students t-test *p<0.05, **p<0.01, † p<0.005, †† p<0.001).
Background: In western blotting, separated proteins are transferred to a membrane and probed.

Another assay has as its system NMuMG cells. The experiment in a line: TGFβ1-induced EpMT in NMuMG cells (αSMA western blot, qPCR, immunofluorescence). Format: cell-based, Mouse. The conditions noted are these: western blot. As for the experimental part:
(FIG. 1B; Levels were normalized to the 72 h TGFβ1 only treated sample for each blot. Students t-test *p<0.05, **p<0.01, † p<0.005, †† p<0.001). […] (FIG. 1H; Levels were normalized to the 72 h TGFβ1 only treated sample for each blot. Students t-test *p<0.05, **p<0.01, † p<0.005, †† p<0.001). FIG. 1G and FIG. 1H show the small molecule […] SB431542 suppressed TGFβ-induced calpain activity (as measured by cleavage of Filamin A, a known calpain substrate) and TGFβ-induced phosphorylation of SMAD2, as measured by western blot (FIG. 1H) and quantified western blot data done in biological replicates (FIG. 1H; Levels were normalized to the 72 h TGFβ1 only treated sample for each blot. Student's t-test *p<0.05, **p<0.01, † p<0.005, †† p<0.001).). […] NMuMG cells pretreated with TGFβ1 for 72 hours to induce EMT, and then treated with calpain inhibitor MDL-28170 while in the continued presence of TGFβ1 for an additional 48 h or 72 h post-induction, can revert to a more epithelial phenotype as assessed by αSMA expression by western blot (FIG. 1I) and quantified western blot data done in biological replicates (FIG. 1J; Levels were normalized to TGFβ1 only treated samples within each time point. Students t-test *p<0.05).
Calpain inhibition was also found to suppress TGFβ-induced expression of genes commonly and functionally associated with fibrosis, such as collagen 1A1, vimentin and matrix metalloproteinase 2/9 (FIG. 1C). A profound decrease in E-cadherin, a cell surface protein highly expressed by epithelial cells, was observed by immunofluorescence upon stimulation with TGFβ but was prevented by treatment with calpain inhibitor MDL-28170 (FIG. 1D). […] (FIG. 1F). […]

A further assay relates to phosphorylation of SMAD2. The experiment in a line: TGFβ-induced phosphorylation of SMAD2 in NMuMG cells (western blot). Format: cell-based, Mouse. The protocol: as §1
Assay [2] has as its target T1, Human recombinant mini-CAPN9 (Homo sapiens, UniProt O14815).
T1 construct: made in house; host or cells: E. coli
T1 sequence (O14815 42-337 limits assumed): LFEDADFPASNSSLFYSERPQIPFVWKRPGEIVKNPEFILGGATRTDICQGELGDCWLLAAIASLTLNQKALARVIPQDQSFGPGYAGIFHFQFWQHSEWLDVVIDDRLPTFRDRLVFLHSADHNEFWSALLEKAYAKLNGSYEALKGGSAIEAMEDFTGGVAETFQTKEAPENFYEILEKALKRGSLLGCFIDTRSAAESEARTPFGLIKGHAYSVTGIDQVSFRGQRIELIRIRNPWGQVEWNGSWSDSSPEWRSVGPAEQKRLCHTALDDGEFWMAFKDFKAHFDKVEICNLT
The experiment in a line: Biochemical assay for calpain 9 inhibition (FRET peptide substrate, FLIPR). To be noted: IC50 by 4 parameter logistic fitting; 10 min preincubation; ambient temperature. As for the experimental part: Human recombinant mini-CAPN9 was expressed in E. coli and purified as described in Davis, T. L., et al. (2007) J Mol Biol 366(1): 216-229.
All enzyme reactions are run at ambient temperature (˜25° C.) in black 384 well assay plates. Inhibitors solutions in DMSO are typically semi-log serially diluted prior to further dilution in assay buffer (Tris-HCl 20 mM, KCl 100 mM, BSA 0.1%, 1 mM DTT). Calpain enzyme stocks are diluted in assay buffer without Ca (II) just prior to use (1 μM) and incubated with serially diluted test compounds at 2× concentrations in the assay plate for 10 min.
After the compound preincubation, the FLIPR liquid handler is used to initiate the reaction by adding a 2× mix of substrate (1 μM Calpain FRET peptide substrate (5-FAM/QXL 520) Anaspec (Catalog# AS-72149)) and Ca (II) (10 mM). Reactions are measured using a FLIPR Tetra reader (Molecular Devices Inc).
Slopes (reaction rates) are calculated within the 0-2 min interval using the ScreenWorks software (Molecular Devices Inc). Slopes are plotted versus test compound concentration to obtain dose-response curves. IC50 values are obtained using 4 parameter logistic fitting.

In the case of `NCCOB(c1ccccc1)c1ccccc1` [2-APB, 2-aminoethoxydiphenyl borate], the “TGFβ-induced calpain activity (cleavage of Filamin A)” value (“TGFβ-induced calpain activity” below) in assay [1] is listed as “suppressed”. In the assay with NMuMG cells, the “TGFβ1-induced EpMT as measured by αSMA expression” value (“TGFβ1-induced EpMT as measured” for short) was “able to inhibit TGFβ1-induced αSMA expression at high doses”. The “TGFβ-induced phosphorylation of SMAD2” value with phosphorylation of SMAD2 is recorded as “without significantly affecting”.
For the compound `CC(C)C[C@@H](C=O)NC(=O)[C@@H](NS(=O)(=O)c1ccc(F)cc1)C(C)C` [Calpain Inhibitor IV SJA-6017], the 50% inhibitory concentration (IC50) in assay [2] was 2.23 µM.
Take `CC(C)C[C@@H](C=O)NC(=O)[C@H](CC(C)C)NC(=O)[C@H](CC(C)C)NC(=O)OCc1ccccc1` [MG-132] (Cbz-Leu-Leu-Leu-aldehyde): the IC50 in assay [2] was determined as 9.88 µM.
Consider `NC(=O)c1ccc(-c2nc(-c3ccc4c(c3)OCO4)c(-c3ccccn3)[nH]2)cc1` [SB431542], for which the “TGFβ-induced calpain activity” value in assay [1] is on record as “did not show”. Further, the “TGFβ1-induced EpMT as measured” value in the assay with NMuMG cells was “did not show”. The “TGFβ-induced phosphorylation of SMAD2” value in the assay on phosphorylation of SMAD2 is recorded as “did not show”.
`CCC(C)[C@H](NS(=O)(=O)c1cccc2ccccc12)C(=O)N[C@H](C=O)Cc1c[nH]c2ccccc12` (stereo partly drawn) [NapSul-Ile-Trp-CHO]: the 50% inhibitory concentration (IC50) in assay [2] turned out to be 6.25 µM.
Still for that read-out and setting: in the case of `CC(C)C[C@@H](C=O)NC(=O)[C@H](CC(C)C)NC(=O)OCc1ccccc1` [Z-Leu-Leu-CHO] it was 2.35 µM; in that of `O=C1Nc2ccc([N+](=O)[O-])cc2C1=O` [5-Nitroisatin], 42.3 µM.
The same measure, in the same setting: next, `CC(C)C[C@H](NC(=O)[C@H]1O[C@@H]1C(=O)O)C(=O)NCCCCNC(=N)N` [E-64]: 11.6 µM.
`CSCC[C@@H](C=O)NC(=O)[C@H](CC(C)C)NC(=O)[C@H](CC(C)C)NC(C)=O` [Calpain Inhibitor II (ALLM)] (Ac-Leu-Leu-Met-aldehyde): the IC50 in assay [2] came out at 3.32 µM.
With `C=CC[C@@H]1/C=C(\C)C[C@H](C)C[C@H](OC)[C@H]2O[C@@](O)(C(=O)C(=O)N3CCCC[C@H]3C(=O)O[C@H](/C(C)=C/[C@@H]3CC[C@@H](O)[C@H](OC)C3)[C@H](C)[C@@H](O)CC1=O)[C@H](C)C[C@@H]2OC` [FK506, tacrolimus], the “TGFβ1-induced EpMT as measured” value in the assay with NMuMG cells is given as “able to potently suppress”.
In the case of `CC(C)[C@H](NC(=O)CNC(=O)OC(C)(C)C)C(=O)N[C@H](C=O)C(C)C` [Boc-Gly-Val-Val-CHO] (Boc-Gly-Val-Val-aldehyde), the concentration for half-maximal inhibition (IC50) in assay [2] worked out at 6.68 µM.
Still for that read-out and setting: next, `CC(=O)N[C@@H](CC(C)C)C(=O)N[C@@H](CC(C)C)C(=O)N[C@H](C=O)CCCNC(=N)N` [Leupeptin Hemisulfate]: 9.24 µM; `CC(C)CCNC(=O)[C@H](CC(C)C)NC(=O)[C@H]1O[C@@H]1C(=O)O` [E-64-C]: 35.8 µM.
For the compound `CCCC[C@@H](C=O)NC(=O)[C@H](CC(C)C)NC(=O)OCc1ccccc1` [Calpeptin], the “TGFβ-induced calpain activity” value in assay [1] is listed as “suppressed”. The “TGFβ1-induced EpMT as measured” value with NMuMG cells is reported as “suppresses”. In addition, the “TGFβ-induced phosphorylation of SMAD2” value in the assay on phosphorylation of SMAD2 is on record as “without significantly affecting”. Further, in assay [2], the half-maximal inhibitory concentration (IC50) worked out at 2.84 µM.

A word on the IC50: it is the concentration at which inhibition is half-maximal.
